What all share (experiment): MIC determination in Muller Hinton Agar (CLSI agar dilution)
Type in all cases: cell-based
In general terms: In agar dilution the substance is mixed into plates at graded concentrations.

For assay [1], the system named is Citrobacter sp S123A. On the procedure: (§1) The antibacterial activity of combinations according to the invention against resistant bacterial strains was investigated. Minimum Inhibitory Concentration (MIC) determination for the combinations according to invention was carried out in Muller Hinton Agar (MHA) (BD, USA) according to Clinical and Laboratory Standards Institute (CLSI) recommendations, (Clinical and Laboratory Standards Institute (CLSI), Performance Standards for Antimicrobial Susceptibility Testing, 20th Informational Supplement, M 100-S20, Volume 30, No. 1, 2010). In short, the test strains were adjusted to deliver about 10^4 CFU per spot with a multipoint inoculator (Applied Quality Services, UK). The plates were pored with MHA containing doubling concentration range of the test combinations according to invention. The plates were inoculated and were incubated at 35° C. for 18 hours.

The subject of assay [2] is E. cloacae J137. The conditions noted are these: Enterobacter cloacae. On the procedure:
as §1

The test system of assay [3] is E. coli M50. The following applies: Escherichia coli. As for the experimental part:
as §1

Assay [4] deals with E. coli NCTC 13352. The following applies: Escherichia coli, NCTC13352. On the procedure:
as §1

Assay [5] deals with E. coli S206. The following applies: Escherichia coli. On the procedure: as §1
Assay [6] has as its system K. pneumoniae ATCC 700603. The following applies: Klebsiella pneumoniae, ATCC700603. As for the experimental part:
as §1

The test system of assay [7] is K. pneumoniae H521. The conditions noted are these: Klebsiella pneumoniae. On the procedure:
as §1

For assay [8], the system named is K. pneumoniae J102. The following applies: Klebsiella pneumoniae. As for the experimental part: as §1
Assay [9] deals with K. pneumoniae J125. The conditions noted are these: Klebsiella pneumoniae. On the procedure: as §1
The subject of assay [10] is P. aeruginosa 1405. The conditions noted are these: Pseudomonas aeruginosa; P. aeruginosa 1405, Derepressed AmpC; agent alone. On the procedure: as §1
Assay [11] has as its system P. aeruginosa 2779. The conditions noted are these: Pseudomonas aeruginosa. As for the experimental part:
as §1

A word on the MIC: it is the lowest concentration that inhibits growth of the organism.

Read-outs that look alike come from different tables or passages of the source.

For the compound `Cn1c(N)c(NC(=O)NCCN)c[n+]1CC1=C(C(=O)O)N2C(=O)[C@@H](NC(=O)/C(=N\OC(C)(C)C(=O)[O-])c3nsc(N)n3)[C@H]2SC1` [Ceftolozane], the MIC in assay [1] is above 32 µg/mL; in assay [2] (J137), above 32 µg/mL; in assay [3] (M50), above 32 µg/mL; in assay [4], above 32 µg/mL; in assay [5] (S206), above 32 µg/mL; in assay [6], 4 µg/mL. Moreover, the MIC is above 32 µg/mL in assay [7] (H521); above 32 µg/mL in assay [8] (J102); 32 µg/mL in assay [9] (J125); 8 µg/mL in [10]; 4 µg/mL in assay [11] (2779).
As for `C[C@@H](O)[C@H]1C(=O)N2C(C(=O)O)=C(SCCN=CN)C[C@H]12` [Imipenem], the MIC in assay [1] is 4 µg/mL; in [2] (E. cloacae J137, P99, agent alone, read-out: MIC), 1 µg/mL; in [3] (E. coli M50, CMY-2, agent alone, read-out: MIC) it was 0.5 µg/mL; in assay [4] (E. coli NCTC 13352, TEM-10, agent alone, read-out: MIC), 0.25 µg/mL; in [5] (E. coli S206, Class C, agent alone, read-out: MIC), 0.25 µg/mL; in assay [6] (K. pneumoniae ATCC 700603, SHV-18, agent alone, read-out: MIC) it was 0.5 µg/mL. Also, the MIC turned out to be 32 µg/mL in assay [7] (K. pneumoniae H521, KPC, SHV, TEM, agent alone, read-out: MIC); 4 µg/mL in assay [8] (K. pneumoniae J102, OMP, SHV, TEM, agent alone, read-out: MIC); 8 µg/mL in assay [9] (K. pneumoniae J125, KPC3, SHV, TEM, agent alone, read-out: MIC); 16 µg/mL in assay [10]; 2 µg/mL in assay [11] (P. aeruginosa 2779, AmpC, agent alone, read-out: MIC).

The values above are taken from patent US20170027917A1, “PHARMACEUTICAL COMPOSITIONS COMPRISING ANTIBACTERIAL AGENTS” (priority 2014, published 2017).
